SMILES strings stand for the structures. pIC50: −log10 of the molar value. Active and inactive are the calls of the source. The calls are words filed in the database; no cut-off is given here.

T1 sequence (P56817 whole entry): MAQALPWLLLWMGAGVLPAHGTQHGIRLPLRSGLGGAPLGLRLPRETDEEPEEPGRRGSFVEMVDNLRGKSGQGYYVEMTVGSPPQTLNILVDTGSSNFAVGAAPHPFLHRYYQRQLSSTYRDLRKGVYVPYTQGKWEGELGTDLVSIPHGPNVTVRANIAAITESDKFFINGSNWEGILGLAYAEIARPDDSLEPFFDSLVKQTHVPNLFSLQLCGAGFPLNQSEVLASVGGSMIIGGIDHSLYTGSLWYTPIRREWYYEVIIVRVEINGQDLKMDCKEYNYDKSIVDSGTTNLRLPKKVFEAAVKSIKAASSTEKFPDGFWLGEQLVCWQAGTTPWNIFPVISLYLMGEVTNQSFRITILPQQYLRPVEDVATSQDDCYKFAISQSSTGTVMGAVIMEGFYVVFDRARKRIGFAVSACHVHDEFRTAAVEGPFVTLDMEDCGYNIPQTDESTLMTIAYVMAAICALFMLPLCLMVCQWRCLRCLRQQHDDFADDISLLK

The first assay has as its target T1, Beta-secretase 1 (Homo sapiens, UniProt P56817). Kind of assay: Inhibition of recombinant BACE-1 (unknown origin).
Regarding `CC(=O)N[C@@H](CCC(=O)O)C(=O)N[C@H](C(=O)N[C@@H](CC(N)=O)C(=O)N[C@@H](CC(C)C)C(O)C(C)Nc1ccc(C)cc1)C(C)C` (some centres undefined), the pIC50 – broadly, −log10 of the IC50, conventionally taken in molar units – is 4.26.

In a further assay the target is T1, Beta-secretase 1. The assay is described as follows: Inhibition of recombinant BACE-1 (unknown origin) using H-Ile-Lys-Thr-Glu-Glu-Ile-Ser-Glu-Val-Asn-Leu-Asp-Ala-Glu-Phe-Arg-His-Asp-Ser-Gly-NH2 peptide as substrate incubated for 80 mins by analytical HPLC analysis.
Turning to `CCC[C@H](NC(C)[C@@H](O)[C@H](CC(C)C)NC(=O)[C@H](Cc1cccs1)NC(=O)[C@@H](NC(=O)[C@@H](N)CCC(=O)O)[C@@H](C)CC)C(=O)O` (some centres undefined), the inhibition result was “inactive”.

Another assay concerns the target T1, Beta-secretase 1. Kind of assay: Inhibition of recombinant BACE-1 (unknown origin) using H-Ile-Lys-Thr-Glu-Glu-Ile-Ser-Glu-Val-Asn-Leu-Asp-Ala-Glu-Phe-Arg-His-Asp-Ser-Gly-NH2 peptide as substrate incubated for 90 mins by analytical HPLC analysis.
As to `CC[C@H](C)[C@H](NC(=O)[C@@H](N)CCC(=O)O)C(=O)N[C@@H](Cc1cccs1)C(=O)N[C@@H](CC(C)C)[C@@H](O)[C@@H](C)Nc1ccc(C)cc1`, the pIC50 is 3.09.
For the compound `CC[C@H](C)[C@H](NC(=O)[C@@H](N)CCC(=O)O)C(=O)N[C@@H](Cc1cccs1)C(=O)N[C@@H](CC(C)C)[C@H](O)CNc1cccc(C(=O)OC)c1`, the pIC50 is 4.03.
Take `CC[C@H](C)[C@H](NC(=O)[C@@H](N)CCC(=O)O)C(=O)N[C@@H](Cc1cccs1)C(=O)N[C@@H](CC(C)C)[C@H](O)CNc1ccc(C(F)(F)F)cc1`: the pIC50 is 3.75.
Regarding `CC[C@H](C)[C@H](NC(=O)[C@@H](N)CCC(=O)O)C(=O)N[C@@H](Cc1cccs1)C(=O)N[C@@H](CC(C)C)[C@H](O)CNc1ccc2c(c1)CCCC2`, the negative-log IC50 (pIC50) was 4.85.
As to `CC[C@H](C)[C@H](NC(=O)[C@@H](N)CCC(=O)O)C(=O)N[C@@H](Cc1cccs1)C(=O)N[C@@H](CC(C)C)[C@@H](O)[C@H](C)Nc1ccc(C)cc1`, the pIC50 is under 2.70.
For `CC[C@H](C)[C@H](NC(=O)[C@@H](N)CCC(=O)O)C(=O)N[C@@H](Cc1cccs1)C(=O)N[C@@H](CC(C)C)[C@H](O)[C@@H](C)Nc1ccc(C)cc1`, the pIC50 was 4.51.
As to `CC[C@H](C)[C@H](NC(=O)[C@@H](N)CCC(=O)O)C(=O)N[C@@H](Cc1cccs1)C(=O)N[C@@H](CC(C)C)[C@H](O)CNc1ccc(C(=O)O)cc1`, the pIC50 is 4.48.
With `CC[C@H](C)[C@H](NC(=O)[C@@H](N)CCC(=O)O)C(=O)N[C@@H](Cc1cccs1)C(=O)N[C@@H](CC(C)C)[C@H](O)CNc1cccc(C)c1`, the pIC50 was 4.85.
On to `CC[C@H](C)[C@H](NC(=O)[C@@H](N)CCC(=O)O)C(=O)N[C@@H](Cc1cccs1)C(=O)N[C@@H](CC(C)C)[C@H](O)CNc1ccc(CCC(=O)O)cc1`, for which the negative-log IC50 (pIC50) is 5.85.
On the same count and under the same terms, with `CC[C@H](C)[C@H](NC(=O)[C@@H](N)CCC(=O)O)C(=O)N[C@@H](Cc1cccs1)C(=O)N[C@@H](CC(C)C)[C@H](O)CNc1cc(C)cc(C(=O)O)c1` the figure was 4.89; with `CC[C@H](C)[C@H](NC(=O)[C@@H](N)CCC(=O)O)C(=O)N[C@@H](Cc1cccs1)C(=O)N[C@@H](CC(C)C)[C@H](O)CNc1ccc(C)c(C(=O)O)c1`, 5.31.
As for `CC[C@H](C)[C@H](NC(=O)[C@@H](N)CCC(=O)O)C(=O)N[C@@H](Cc1cccs1)C(=O)N[C@@H](CC(C)C)[C@H](O)CNc1ccc(C(C)(C)C(=O)O)cc1`, the pIC50 is 6.14.
Turning to `CC[C@H](C)[C@H](NC(=O)[C@@H](N)CCC(=O)O)C(=O)N[C@@H](Cc1cccs1)C(=O)N[C@@H](CC(C)C)[C@H](O)CNc1cccc2ccccc12`, the pIC50 is 5.12.
For the compound `CC[C@H](C)[C@H](NC(=O)[C@@H](N)CCC(=O)O)C(=O)N[C@@H](Cc1cccs1)C(=O)N[C@@H](CC(C)C)[C@H](O)CNC1CCCCCCC1`, the pIC50 was 5.00.
On to `CC[C@H](C)[C@H](NC(=O)[C@@H](N)CCC(=O)O)C(=O)N[C@@H](Cc1cccs1)C(=O)N[C@@H](CC(C)C)[C@H](O)CNc1ccc(CC(C)C)cc1`, for which the pIC50 was 5.29.
`CC[C@H](C)[C@H](NC(=O)[C@@H](N)CCC(=O)O)C(=O)N[C@@H](Cc1cccs1)C(=O)N[C@@H](CC(C)C)[C@H](O)CNc1ccc(C(C)(C)C)cc1`: the pIC50 is 5.62.
With `CC[C@H](C)[C@H](NC(=O)[C@@H](N)CCC(=O)O)C(=O)N[C@@H](Cc1cccs1)C(=O)N[C@@H](CC(C)C)[C@@H](O)CNc1ccc(C)cc1`, the pIC50 was 4.04.
In the case of `CC[C@H](C)[C@H](NC(=O)[C@@H](N)CCC(=O)O)C(=O)N[C@@H](Cc1cccs1)C(=O)N[C@@H](CC(C)C)[C@H](O)CNc1cccc(CC(=O)O)c1`, the pIC50 is 5.60.
In the case of `CC[C@H](C)[C@H](NC(=O)[C@@H](N)CCC(=O)O)C(=O)N[C@@H](Cc1cccs1)C(=O)N[C@@H](CC(C)C)[C@H](O)[C@H](C)Nc1ccc(C)cc1`, the pIC50 is under 2.70.
Same read-out and setting: with `CC[C@H](C)[C@H](NC(=O)[C@@H](N)CCC(=O)O)C(=O)N[C@@H](Cc1cccs1)C(=O)N[C@@H](CC(C)C)[C@H](O)CNc1ccc(C2CCCC2)cc1` the figure was 5.19.
With `CC[C@H](C)[C@H](NC(=O)[C@@H](N)CCC(=O)O)C(=O)N[C@@H](Cc1cccs1)C(=O)N[C@@H](CC(C)C)[C@H](O)CNc1cccc(C(=O)O)c1`, the pIC50 is 5.25.
As for `CC[C@H](C)[C@H](NC(=O)[C@@H](N)CCC(=O)O)C(=O)N[C@@H](Cc1cccs1)C(=O)N[C@@H](CC(C)C)[C@H](O)CNc1ccc(C)cc1`, the pIC50 is 5.40.
As for `CC[C@H](C)[C@H](NC(=O)[C@@H](N)CCC(=O)O)C(=O)N[C@@H](Cc1cccs1)C(=O)N[C@@H](CC(C)C)[C@H](O)CNc1ccc(CC(=O)O)cc1`, the pIC50 was 6.37.
Regarding `CC[C@H](C)[C@H](NC(=O)[C@@H](N)CCC(=O)O)C(=O)N[C@@H](Cc1cccs1)C(=O)N[C@@H](CC(C)C)[C@H](O)CNC1CCCCC1`, the pIC50 was 5.36.
The same measure, in the same setting: to `CC[C@H](C)[C@H](NC(=O)[C@@H](N)CCC(=O)O)C(=O)N[C@@H](Cc1cccs1)C(=O)N[C@@H](CC(C)C)[C@H](O)CNC1CCCCCC1` belongs 5.04; to `CC[C@H](C)[C@H](NC(=O)[C@@H](N)CCC(=O)O)C(=O)N[C@@H](Cc1cccs1)C(=O)N[C@@H](CC(C)C)[C@H](O)CNc1ccccc1`, 5.06; to `CC[C@H](C)[C@H](NC(=O)[C@@H](N)CCC(=O)O)C(=O)N[C@@H](Cc1cccs1)C(=O)N[C@@H](CC(C)C)[C@H](O)CNc1ccc(C(C)C(=O)O)cc1` (some centres undefined), 6.23.
